What was measured:
[1] = Foam stability of polidocanol with single molecular weight (Tessari method); format: physicochemical; conditions: for Foam coalescence time / Foam drainage time: 1% solution in 4% solution of ethanol in PBS, Tessari method, gas-to-liquid ratio 3:1; for foam formed after thorough mixing with air: 1% solutions mixed with air at a volume ratio of 1:3
Procedure: Samples of polidocanol with a single molecular weight (DD-PEG8-OH, DD-PEG9-OH, and DD-PEG10-OH prepared in Example 1) and a control (polidocanol in a mixture state containing different molecular weights, purchased from Siegfried Hameln GmbH, Germany, batch number OK13103) were separately weighed and prepared into 1% solutions using a 4% solution of ethanol in PBS. The polidocanol was foamed using the Tessari method, i.e., two 2.5 mL syringes were connected via a three-way tube and rapidly pushed and pulled back and forth at a gas-to-liquid ratio of 3:1 until foam formed. All foam was collected into one syringe, the volume was brought to 2 mL, and the foam state was observed while standing. The following parameters were recorded: foam drainage time, foam halflife time, and foam coalescence time.

rabbit marginal ear vein = assay: Venous sclerosing effect in the rabbit marginal ear vein model; format: in vivo; conditions: maximum volume 0.25 mL, calculated on number of rabbit ears
Procedure: The rabbit marginal ear vein was used as an experimental model to compare the effects of adding different concentrations of sodium hyaluronate on the venous sclerosing effect of polidocanol. The specific method was as follows: (1) Domestic rabbits were anesthetized with xylazine (2-5 mg/kg, intramuscular injection). Subsequently, the hair on the ears was shaved, and the area was disinfected using a 0.5% chlorhexidine alcohol solution. (2) The Tessari method was used to foam the polidocanol with the addition of sodium hyaluronate, i.e., two 10 mL syringes were connected via a three-way tube and rapidly pushed and pulled back and forth at a certain gas-to-liquid ratio until foam was formed. (3) A disposable syringe was used to puncture the marginal vein, and the sclerosant was injected slowly, with a maximum volume of 0.25 mL. […]
In this example, 14 days after the injection of different types of polidocanol into some rabbit marginal ear veins, some blood vessels were occluded. […] All rabbit ear blood vessels were scored, with effective ones recorded as 1 and ineffective ones recorded as 0.
The calculation rule for the effective rate was as follows: effective rate = score of rabbit ears/total number of rabbit ears × 100% (calculated based on the number of rabbit ears).
All rabbit ear blood vessels were scored, with effective ones recorded as 1 and ineffective ones recorded as 0. […]

Compound | Foam coalescence time [1] | Foam drainage time [1] | Foam coalescence time ([1]; listed as P10 (1%)) | foam formed after thorough mixing with air [1] | D14 effective rate (%) (rabbit marginal ear vein; venous sclerosis 14 days after injection of foam into rabbit marginal ear veins) | D21 effective rate (%) (rabbit marginal ear vein; venous sclerosis 21 days after injection of foam into rabbit marginal ear veins) | Foam coalescence time ([1]; listed as P8 (1%))
CCCCCCCCCCCCOCCOCCOCCOCCOCCOCCOCCOCCOCCOCCO [P10] | 20 min | 8 s | 20 m | formed homogeneous foam | – | – | –
CCCCCCCCCCCCOCCOCCOCCOCCOCCOCCOCCOCCOCCO [P9] | – | – | – | – | 91.67% | 83.33% | –
CCCCCCCCCCCCOCCOCCOCCOCCOCCOCCOCCOCCO [P8] | 13 min | 3 s | – | formed homogeneous foam | – | – | 13 m
